Experimental data from patent publication US5360909A, “Phenoxyacetic acid compounds and medical preparations containing them” (Terumo Kabushiki Kaisha, priority 1992, dated 1994).

How the values were obtained:
thromboxane A2 (TXA2) = assay: Antagonistic effect to TXA2: contraction of isolated guinea pig tracheal strips; type: cell-based, Hartley male guinea pigs; settings: Cavia porcellus, in vitro, TXA2 10^-7 M, Tyrode solution 37° C.
Procedure: (§1) The in vitro IC50 value of the antagonistic effect of the compounds of the present invention to TXA2 and LTD4 was obtained, using the following test system. Tracheal strips isolated from Hartley male guinea pigs (weight: 300 to 500 g) were suspended under a tension of 0.3 g in a Tyrode solution at 37° C. in an organ bath, to which a mixed gas of oxygen (95%)-carbon dioxide (5%) was introduced. After letting the above stabilize for about one hour, TXA2 (produced by Cayman Co.) or LTD4 (produced by Wako Pure Chemicals CO.) was added to the organ bath in a concentration-of 10^-7 M and 10^-8 M respectively, whereupon the contraction of the sections was measured as a standard. The strips were treated with various amounts of the compounds of Examples 1-8, whereupon the contraction of the tracheal preparations upon dosing with TXA2 or LTDS4 was again measured. From the values thus measured, the IC50 (Inhibition concentration) of the compound added was calculated. The results are shown in Table 1 below; the smaller the amount of the compound, the stronger its effectiveness.

leukotriene D4 (LTD4) = assay: Antagonistic effect to LTD4: contraction of isolated guinea pig tracheal strips; type: cell-based, Hartley male guinea pigs; settings: Cavia porcellus, in vitro, LTD4 10^-8 M, Tyrode solution 37° C.
Procedure: as §1

**Q.** How did the IC50 (thromboxane A2 (TXA2)) turn out when `O=C(O)COc1ccc(CCNS(=O)(=O)c2ccc(Cl)cc2)cc1NC(=O)c1cccc(OCc2ccc3ccccc3n2)c1` [Example 1, 4-[2-(4-chlorobenzenesulfonamido)ethyl]-2-[3-(2-quinolinemethoxy)benzoylamino]phenoxyacetic acid] was run?
**A.** The IC50 was 4.2 nM.

**Q.** What about the IC50 (leukotriene D4 (LTD4)) of the same compound?
**A.** The IC50 was 65 nM.

**Q.** How did the IC50 (thromboxane A2 (TXA2)) turn out when `CCCc1c(OCCCCC(=O)Nc2cc(CCNS(=O)(=O)c3ccc(Cl)cc3)ccc2OCC(=O)O)ccc(C(C)=O)c1O` [Example 7, 4-[2-(4-chlorobenzenesulfonamido)ethyl]-2-[(4-acetyl-3-hydroxy-2-propyl)phenoxy-5-pentamido]phenoxyacetic acid] was run?
**A.** The IC50 was 19 nM.

**Q.** What about the IC50 (leukotriene D4 (LTD4)) of the same compound?
**A.** Its IC50 is 76 nM.

**Q.** Which results are given for `CCCc1c(OCCCCCC(=O)Nc2cc(CCNS(=O)(=O)c3ccc(Cl)cc3)ccc2OCC(=O)O)ccc(C(C)=O)c1O` [Example 8, 4-[2-(4-chlorobenzenesulfonamido)ethyl]-2-[(4-acetyl-3-hydroxy-2-propyl)phenoxy-6-hexamido]phenoxyacetic acid]?
**A.** IC50 (thromboxane A2 (TXA2)): 40 nM; IC50 (leukotriene D4 (LTD4)): 260 nM

**Q.** With `O=C(O)COc1ccc(CCNS(=O)(=O)c2ccc(Cl)cc2)c(OCc2cccc(OCc3ccc4ccccc4n3)c2)c1` [Example 4, 4-[2-(4-chlorobenzenesulfonamido)ethyl]-3-(3-(2-quinolinemethoxy)benzyloxy]phenoxyacetic acid] as the compound, how does the IC50 (thromboxane A2 (TXA2)) read?
**A.** Its IC50 is 590 nM.

**Q.** And the IC50 (leukotriene D4 (LTD4))?
**A.** Its IC50 is 210 nM.

**Q.** What does the source list for `O=C(O)COc1ccc(CCNS(=O)(=O)c2ccc(Cl)cc2)c(OCc2ccc3ccccc3n2)c1` [Example 3, 4-[2-(4-chlorobenzenesulfonamido)ethyl]-3-(2-quinolinemethoxy)phenoxyacetic acid]?
**A.** IC50 (thromboxane A2 (TXA2)): 3.5 nM; IC50 (leukotriene D4 (LTD4)): 8300 nM

**Q.** What does the source list for `O=C(O)COc1ccc(CCNS(=O)(=O)c2ccccc2)cc1NC(=O)c1cccc(OCc2ccc3ccccc3n2)c1` [Example 2, 4-[2-(benzenesulfonylamino)ethyl]-2-[3-(2-quinolinemethoxy)benzoylamino]phenoxyacetic acid]?
**A.** IC50 (thromboxane A2 (TXA2)): 3.4 nM; IC50 (leukotriene D4 (LTD4)): 38 nM

**Q.** How did the IC50 (thromboxane A2 (TXA2)) turn out when `CCCc1c(OCCCC(=O)Nc2cc(CCNS(=O)(=O)c3ccc(Cl)cc3)ccc2OCC(=O)O)ccc(C(C)=O)c1O` [Example 6, 4-[2-(4-chlorobenzenesulfonamido)ethyl]-2-[(4-acetyl-3-hydroxy-2-propyl)phenoxy-4-butamido]phenoxyacetic acid] was run?
**A.** The IC50 was 8.2 nM.

**Q.** And the IC50 (leukotriene D4 (LTD4))?
**A.** The IC50 was 160 nM.

**Q.** What does the source list for `O=C(O)COc1ccc(CCNS(=O)(=O)c2ccc(Cl)cc2)cc1NC(=S)Nc1cccc(OCc2ccc3ccccc3n2)c1` [Example 5, 4-[2-(4-chlorobenzenesulfonamido)ethyl]-2-{3-[3-(2-quinolinemethoxy)phenyl]thioureido}phenoxyacetic acid]?
**A.** IC50 (thromboxane A2 (TXA2)): 25 nM; IC50 (leukotriene D4 (LTD4)): 72 nM
